Columns and labels:
[1] = tested on: BE(2)-C cells; experiment: Matrigel cell invasion assay; type: cell-based, human; conditions: 67μM DMOG for 20 hours, invasion quantified 22 hours later, vs vehicle control
Method: BE(2)-C cells were transfected with siRNA or treated with JMJD1A inhibitors for 20 hours, and then detached and added onto BD Falcon Cell Culture Inserts coated with Matrigel inside BD BioCoat Matrigel Invasion Chambers (Becton Dickinson, Bedford, MA, USA). Cells invaded through Matrigel to the bottom side of the inserts were stained with toluidine blue, photographed under microscope and quantified.

[2] = tested on: BE(2)-C cells; experiment: Cell proliferation, Alamar blue assay, BE(2)-C; type: cell-based, human; conditions: range of doses of DMOG, 72 hours
Method: Cell proliferation was examined with Alamar blue assays. Briefly, cells were plated into 96 well plates, transfected with various siRNAs or treated with different dosages of DMOG. Seventy-two hours later, cells were incubated with Alamar blue (Invitrogen) for 5 hours, and plates were then read on a micro-plate reader at 570/595 nm. Results were calculated according to the optical density absorbance units and expressed as percentage changes in cell numbers.

[3] = tested on: MALAT1; experiment: Real-time RT-PCR of MALAT1 RNA expression in BE(2)-C cells; type: cell-based, human; conditions: 67μM DMOG, 48 hours, vs vehicle control
Text: Gene expression in tumor cells was examined by quantitative real-time RT-PCR as described previously. For the analysis of protein expression by immunoblot, cells were lysed, protein extracted and separated by gel electrophoresis. After western transfer, membranes were probed with mouse anti-N-Myc antibody (1:1000) (Santa Cruz Biotech, CA, USA) or rabbit anti-JMJD1A antibody (1:500) (Abcam, Cambridge, MA, USA), followed by horseradish peroxidase-conjugated anti-mouse (1:10000) or anti-rabbit (1:20000) antiserum (Santa Cruz Biotech). Protein bands were visualized with SuperSignal (Pierce, Rockford, IL, USA). The membranes were lastly re-probed with an anti-actin antibody (Sigma, St Louis, MO, USA) as loading controls.

[4] = tested on: BE(2)-C cells; experiment: Cell migration (wound healing) assay with Ibidi Culture Inserts; type: cell-based, human; conditions: 67μM DMOG vs vehicle control
Method: Ibidi Culture Inserts (DKSH, Sydney, Australia) were placed in the center of 6 well plates. BE(2)-C cells were added into the wells outside the inserts. Sixteen hours later, the inserts were removed to create “wounds”. Photos of the “wounds” were taken under microscope, and the areas of the remaining “wounds” were measured and analyzed with Image J software (National Institutes of Health, USA).

[5] = target: T1, JMJD2A (Homo sapiens, UniProt O75164); experiment: Histone demethylase inhibition assay, JMJD2A; type: biochemical; conditions: in vitro; compared with JMJD1A
T1 sequence (O75164 1-1064): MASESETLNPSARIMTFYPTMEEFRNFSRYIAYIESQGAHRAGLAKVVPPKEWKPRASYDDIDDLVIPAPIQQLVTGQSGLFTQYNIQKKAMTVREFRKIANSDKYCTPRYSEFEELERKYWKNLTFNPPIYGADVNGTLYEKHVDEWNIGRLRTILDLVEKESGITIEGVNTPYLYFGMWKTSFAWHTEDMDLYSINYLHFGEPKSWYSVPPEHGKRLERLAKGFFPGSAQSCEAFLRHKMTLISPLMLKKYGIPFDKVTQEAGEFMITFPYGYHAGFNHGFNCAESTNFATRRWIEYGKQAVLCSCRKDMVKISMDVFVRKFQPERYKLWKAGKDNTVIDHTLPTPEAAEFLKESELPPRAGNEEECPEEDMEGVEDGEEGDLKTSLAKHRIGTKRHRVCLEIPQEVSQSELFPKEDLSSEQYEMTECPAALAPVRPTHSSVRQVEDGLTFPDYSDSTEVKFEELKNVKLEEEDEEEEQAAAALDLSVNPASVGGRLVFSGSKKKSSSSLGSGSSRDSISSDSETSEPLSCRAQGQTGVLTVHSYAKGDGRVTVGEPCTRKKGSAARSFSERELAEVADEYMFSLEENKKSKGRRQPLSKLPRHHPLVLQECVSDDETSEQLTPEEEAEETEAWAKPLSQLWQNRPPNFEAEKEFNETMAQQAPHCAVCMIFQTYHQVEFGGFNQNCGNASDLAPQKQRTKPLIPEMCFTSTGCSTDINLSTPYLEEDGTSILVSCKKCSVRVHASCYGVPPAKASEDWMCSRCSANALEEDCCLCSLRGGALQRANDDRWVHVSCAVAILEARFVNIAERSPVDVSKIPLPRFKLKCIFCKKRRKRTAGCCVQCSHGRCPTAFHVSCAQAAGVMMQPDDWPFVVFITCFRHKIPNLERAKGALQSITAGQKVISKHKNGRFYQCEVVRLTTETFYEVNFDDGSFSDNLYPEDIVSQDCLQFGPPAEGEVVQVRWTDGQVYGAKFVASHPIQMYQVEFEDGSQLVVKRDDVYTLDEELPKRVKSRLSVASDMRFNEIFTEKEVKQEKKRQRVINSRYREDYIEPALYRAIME

[6] = target: JARID1A (Homo sapiens, UniProt P29375); experiment: Formaldehyde dehydrogenase-coupled assay, JARID1A; type: biochemical; conditions: in vitro; compared with JMJD1A
[7] = target: T2, JMJD2C (Homo sapiens, UniProt Q9H3R0); experiment: Histone demethylase inhibition assay, JMJD2C; type: biochemical; conditions: in vitro; compared with JMJD1A
T2 sequence (Q9H3R0 1-1056): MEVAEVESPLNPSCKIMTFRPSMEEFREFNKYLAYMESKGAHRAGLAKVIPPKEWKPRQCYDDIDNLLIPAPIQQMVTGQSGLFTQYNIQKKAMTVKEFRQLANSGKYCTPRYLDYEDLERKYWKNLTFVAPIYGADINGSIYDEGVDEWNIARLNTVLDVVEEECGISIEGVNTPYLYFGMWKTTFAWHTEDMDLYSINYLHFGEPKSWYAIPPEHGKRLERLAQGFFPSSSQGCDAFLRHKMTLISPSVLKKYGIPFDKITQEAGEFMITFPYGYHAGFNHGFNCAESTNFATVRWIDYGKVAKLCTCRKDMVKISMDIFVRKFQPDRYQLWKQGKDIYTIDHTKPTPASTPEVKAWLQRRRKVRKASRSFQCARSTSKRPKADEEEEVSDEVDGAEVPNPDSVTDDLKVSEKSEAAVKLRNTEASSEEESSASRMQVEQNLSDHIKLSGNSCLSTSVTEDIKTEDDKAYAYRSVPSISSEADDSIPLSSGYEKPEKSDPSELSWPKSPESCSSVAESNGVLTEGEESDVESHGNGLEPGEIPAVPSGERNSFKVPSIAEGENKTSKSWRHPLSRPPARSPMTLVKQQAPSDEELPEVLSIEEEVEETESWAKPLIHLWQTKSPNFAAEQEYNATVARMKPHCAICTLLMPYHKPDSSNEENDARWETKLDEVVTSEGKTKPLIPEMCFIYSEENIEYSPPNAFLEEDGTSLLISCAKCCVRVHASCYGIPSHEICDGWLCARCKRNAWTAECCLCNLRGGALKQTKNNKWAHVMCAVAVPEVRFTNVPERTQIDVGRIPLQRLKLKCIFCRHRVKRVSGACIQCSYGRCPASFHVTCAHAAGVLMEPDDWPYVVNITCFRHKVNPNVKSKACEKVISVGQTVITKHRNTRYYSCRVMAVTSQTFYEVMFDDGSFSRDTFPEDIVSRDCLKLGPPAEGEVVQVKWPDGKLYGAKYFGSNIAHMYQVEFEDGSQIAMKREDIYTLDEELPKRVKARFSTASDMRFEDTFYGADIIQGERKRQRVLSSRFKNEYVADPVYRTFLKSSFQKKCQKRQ

JARID1A, sequence (P29375 whole entry): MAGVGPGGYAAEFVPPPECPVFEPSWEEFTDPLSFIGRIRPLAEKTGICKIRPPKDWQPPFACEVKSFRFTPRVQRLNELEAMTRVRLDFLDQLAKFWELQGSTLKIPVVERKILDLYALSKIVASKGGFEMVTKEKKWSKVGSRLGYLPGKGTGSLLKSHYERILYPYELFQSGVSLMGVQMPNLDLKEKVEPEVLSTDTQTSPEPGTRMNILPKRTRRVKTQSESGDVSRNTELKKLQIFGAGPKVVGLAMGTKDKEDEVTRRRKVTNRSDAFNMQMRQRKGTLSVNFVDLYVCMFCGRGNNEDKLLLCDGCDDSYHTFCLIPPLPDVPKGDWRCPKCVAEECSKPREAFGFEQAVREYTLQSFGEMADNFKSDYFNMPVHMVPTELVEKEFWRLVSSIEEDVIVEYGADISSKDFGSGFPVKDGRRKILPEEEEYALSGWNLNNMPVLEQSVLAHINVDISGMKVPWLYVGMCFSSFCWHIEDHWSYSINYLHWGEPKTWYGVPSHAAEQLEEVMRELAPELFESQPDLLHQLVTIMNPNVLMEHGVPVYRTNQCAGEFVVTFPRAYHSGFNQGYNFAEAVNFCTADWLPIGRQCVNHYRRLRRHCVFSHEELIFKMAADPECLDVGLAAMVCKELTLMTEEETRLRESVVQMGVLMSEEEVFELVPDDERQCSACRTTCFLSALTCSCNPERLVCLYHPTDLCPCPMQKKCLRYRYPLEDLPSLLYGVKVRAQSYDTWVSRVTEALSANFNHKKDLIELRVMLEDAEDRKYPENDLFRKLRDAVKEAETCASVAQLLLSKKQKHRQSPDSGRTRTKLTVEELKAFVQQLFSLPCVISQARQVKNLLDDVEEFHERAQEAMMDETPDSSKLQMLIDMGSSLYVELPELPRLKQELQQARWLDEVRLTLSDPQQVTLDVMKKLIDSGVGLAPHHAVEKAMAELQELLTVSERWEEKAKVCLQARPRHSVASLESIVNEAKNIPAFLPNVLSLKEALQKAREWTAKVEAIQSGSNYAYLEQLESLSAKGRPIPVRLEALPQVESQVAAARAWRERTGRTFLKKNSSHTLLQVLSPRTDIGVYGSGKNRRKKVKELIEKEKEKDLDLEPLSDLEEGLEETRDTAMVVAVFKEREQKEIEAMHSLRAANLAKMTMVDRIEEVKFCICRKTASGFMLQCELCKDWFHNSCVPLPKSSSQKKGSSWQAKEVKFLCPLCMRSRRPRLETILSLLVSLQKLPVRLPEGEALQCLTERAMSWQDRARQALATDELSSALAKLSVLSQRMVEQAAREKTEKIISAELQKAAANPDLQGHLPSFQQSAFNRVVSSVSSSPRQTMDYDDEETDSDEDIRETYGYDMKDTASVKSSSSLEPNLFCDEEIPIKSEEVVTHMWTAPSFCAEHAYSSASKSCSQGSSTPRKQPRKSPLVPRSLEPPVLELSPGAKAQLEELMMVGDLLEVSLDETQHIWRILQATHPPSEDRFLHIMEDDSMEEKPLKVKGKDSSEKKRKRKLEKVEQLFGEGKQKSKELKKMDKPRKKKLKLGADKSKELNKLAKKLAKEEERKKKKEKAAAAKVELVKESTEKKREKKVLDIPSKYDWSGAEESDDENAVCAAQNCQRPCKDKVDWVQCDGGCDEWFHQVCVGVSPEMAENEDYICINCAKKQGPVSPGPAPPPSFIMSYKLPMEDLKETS

Inhibition of other histone demethylases (JMJD2A), concentration in words [5]	Inhibition of other histone demethylases (JARID1A), concentration in words [6]	Inhibition of other histone demethylases (JMJD2C), concentration in words [7]	Structure (SMILES)	Reduction of cell invasion through Matrigel [1]	Cell proliferation (viable cells, Alamar blue) [2]	MALAT1 gene expression [3]	Increase in area of remaining wounds ([4]; 32 hours after removal of inserts)	Increase in area of remaining wounds ([4]; 48 hours after removal of inserts)
			COC(=O)CNC(=O)C(=O)OC [DMOG]	approximately 52%	no effect	reduced	approximately 47%	~895%
much higher concentrations	much higher concentrations	much higher concentrations	O=C(O)CNC(=O)C(=O)O [NOG, N-oxalylglycine]					

From article PMC4039110, “The histone demethylase JMJD1A induces cell migration and invasion by up-regulating the expression of the long noncoding RNA MALAT1” (Oncotarget, 2014)
